This is an account of results in paper PMC2993768 (Journal of natural products, 2010).

The conditions of experiment [1]: micromolar range; cited from earlier work.
Experiment [2] concerns mouse dorsal root ganglion (DRG) neurons. The following applies: purified compounds, 20 μg / mL, K+-stimulated.
In experiment [3] the test system is other serotonin receptors. As to the kind of experiment: PDSP primary binding assay at 10 μM, other serotonin receptors. The arrangement: species or system human. The following applies: from Ki at 5-HT2B vs no significant binding at 10 μM.

Regarding `O=C(O)c1csc(-c2ccccc2O)n1` [Aeruginoic acid], the antihypotensive activity entry in experiment [1] is “exhibited antihypotensive activity”.

On to `OC[C@@H]1CSC(c2ccccc2O)=N1` [Compound 1, aerugine], for which the “effect on Ca2+ influx in DRG cells” value in experiment [2] was “observably increased Ca^2+ influx”. On the same count and under the same terms, for `NC(=O)C1CSC(c2ccccc2O)=N1` (centres unmarked) [Compound 3, pulicatin G] the value was “observably increased Ca^2+ influx”. For the molecule `C[C@@H]1SC(c2ccccc2O)=N[C@@H]1CO` [Compound 6, Pulicatin A], the “effect on Ca2+ influx in DRG cells” value in experiment [2] is recorded as “decreased Ca^2+ influx”. Further, the “selectivity for 5-HT2B over related receptors” value in experiment [3] is on record as “at least 20 fold”.
